Test results published in ChEMBL document CHEMBL2074095, “Molecular cloning of PEPT 2, a new member of the H+/peptide cotransporter family, from human kidney” (Biochim Biophys Acta, 1995).
One block for each compound: values may come before it. Residues, ends and D or L forms follow the SMILES beside them.

Key:
Type in all cases: functional, cell-based
Parameters in all cases: scale not given: the % may be the effect or the level left
[1] = molecular target: T1, Solute carrier family 15 member 2 (Homo sapiens) (UniProt Q16348); assay: TP_TRANSPORTER: inhibition of Gly-Sar uptake (Gly-Sar: 30 uM, Cephalexin: 10000 uM) in PEPT2-expressing HeLa cells
T1 sequence (whole entry): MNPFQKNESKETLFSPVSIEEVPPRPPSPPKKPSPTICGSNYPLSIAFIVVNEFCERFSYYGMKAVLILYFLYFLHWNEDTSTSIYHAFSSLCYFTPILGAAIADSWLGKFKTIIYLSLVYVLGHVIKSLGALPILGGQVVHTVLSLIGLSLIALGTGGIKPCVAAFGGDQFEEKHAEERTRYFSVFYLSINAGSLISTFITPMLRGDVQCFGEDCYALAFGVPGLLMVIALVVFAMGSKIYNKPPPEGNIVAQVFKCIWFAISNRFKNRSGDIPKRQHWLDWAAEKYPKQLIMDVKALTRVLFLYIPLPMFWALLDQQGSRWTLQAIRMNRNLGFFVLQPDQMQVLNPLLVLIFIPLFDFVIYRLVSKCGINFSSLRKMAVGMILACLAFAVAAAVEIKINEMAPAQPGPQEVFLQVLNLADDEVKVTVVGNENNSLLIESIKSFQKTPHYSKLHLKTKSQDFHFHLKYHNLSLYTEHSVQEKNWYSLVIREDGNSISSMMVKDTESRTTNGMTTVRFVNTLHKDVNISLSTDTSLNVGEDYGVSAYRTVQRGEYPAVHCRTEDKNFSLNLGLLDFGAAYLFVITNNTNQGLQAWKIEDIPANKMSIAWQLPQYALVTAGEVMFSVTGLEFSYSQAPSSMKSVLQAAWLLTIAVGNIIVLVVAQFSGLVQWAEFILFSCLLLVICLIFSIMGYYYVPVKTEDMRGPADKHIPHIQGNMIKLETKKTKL

[2] = molecular target: T1, Solute carrier family 15 member 2 (Homo sapiens); assay: TP_TRANSPORTER: inhibition of Gly-Sar uptake (Gly-Sar: 30 uM, Cephadroxil: 10000 uM) in PEPT2-expressing HeLa cells
[3] = molecular target: T1, Solute carrier family 15 member 2 (Homo sapiens); assay: TP_TRANSPORTER: inhibition of Gly-Sar uptake (Gly-Sar: 30 uM, Ala-Gly-Pro: 10000 uM) in PEPT2-expressing HeLa cells
[4] = molecular target: T1, Solute carrier family 15 member 2 (Homo sapiens); assay: TP_TRANSPORTER: inhibition of Gly-Sar uptake (Gly-Sar: 30 uM, Gly-Phe: 10000 uM) in PEPT2-expressing HeLa cells

- Activity [1]: 0%
Structure (SMILES): CC1=C(C(=O)O)N2C(=O)[C@@H](NC(=O)[C@H](N)c3ccccc3)[C@H]2SC1

- Activity [2]: 0%
Structure (SMILES): CC1=C(C(=O)O)N2C(=O)[C@@H](NC(=O)[C@H](N)c3ccc(O)cc3)[C@H]2SC1

- Activity [3]: 0%
Structure (SMILES): C[C@H](N)C(=O)NCC(=O)N1CCC[C@H]1C(=O)O (H-Ala-Gly-Pro-OH)

- Activity [4]: 0%
Structure (SMILES): NCC(=O)N[C@@H](Cc1ccccc1)C(=O)O (H-Gly-Phe-OH)
